14 compounds from patent US10780090B2, “Heteroaryl compounds useful as inhibitors of SUMO activating enzyme” (Millennium Pharmaceuticals, Inc., priority 2014, dated 2020) can be followed below.

pIC50: −log10 of the molar value.

This assay concerns the target recombinant human SAE enzyme (Homo sapiens (Human), UniProt Q9UBT2). Briefly: SAE HTRF enzyme assay. Type of assay: biochemical. The settings on record: for Percent Inhibition: Concentration 0.111 μM; for pIC50: class symbols A/B/C. Summed up: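 Sumoylation of Ubc9-GST by SAE was followed at low ATP (0.5 μM), pH 7.5, 24° C. for 105 min. Product was detected by HTRF with antibody pairs against Flag and GST tags.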
A general note: Time-resolved FRET reads energy transfer from a long-lived donor to a nearby acceptor.

Sequence of recombinant human SAE enzyme (Q9UBT2 whole entry): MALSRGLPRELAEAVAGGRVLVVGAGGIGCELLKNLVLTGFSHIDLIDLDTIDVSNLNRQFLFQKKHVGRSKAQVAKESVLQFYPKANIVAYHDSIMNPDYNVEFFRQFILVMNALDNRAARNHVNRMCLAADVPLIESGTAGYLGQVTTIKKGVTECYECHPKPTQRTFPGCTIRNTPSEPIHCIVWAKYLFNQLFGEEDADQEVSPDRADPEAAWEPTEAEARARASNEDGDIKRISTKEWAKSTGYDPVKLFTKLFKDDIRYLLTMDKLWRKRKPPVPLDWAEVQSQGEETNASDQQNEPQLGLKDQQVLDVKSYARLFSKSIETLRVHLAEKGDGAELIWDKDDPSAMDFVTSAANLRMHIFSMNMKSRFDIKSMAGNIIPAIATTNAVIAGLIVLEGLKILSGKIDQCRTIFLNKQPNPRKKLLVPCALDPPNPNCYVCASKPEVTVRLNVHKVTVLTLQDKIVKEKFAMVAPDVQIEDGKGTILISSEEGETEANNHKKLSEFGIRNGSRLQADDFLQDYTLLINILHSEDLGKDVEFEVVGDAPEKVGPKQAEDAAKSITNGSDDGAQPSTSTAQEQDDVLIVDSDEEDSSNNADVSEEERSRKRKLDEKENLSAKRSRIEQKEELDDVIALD
Sequence of recombinant human SAE enzyme (Q9UBE0 whole entry partner): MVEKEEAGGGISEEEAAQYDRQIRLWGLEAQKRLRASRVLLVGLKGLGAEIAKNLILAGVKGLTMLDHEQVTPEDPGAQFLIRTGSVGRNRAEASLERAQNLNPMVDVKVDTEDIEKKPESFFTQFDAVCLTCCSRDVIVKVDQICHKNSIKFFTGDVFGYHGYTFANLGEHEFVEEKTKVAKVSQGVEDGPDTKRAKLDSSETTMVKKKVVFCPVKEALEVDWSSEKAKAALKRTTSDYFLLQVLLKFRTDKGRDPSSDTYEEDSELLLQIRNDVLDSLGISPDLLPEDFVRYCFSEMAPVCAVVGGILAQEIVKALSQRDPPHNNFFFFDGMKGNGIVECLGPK

A word on the pIC50: it is −log10 of the IC50, conventionally taken in molar units. In the case of `C[C@](O)(c1csc(C(=O)c2cncnc2N[C@@H]2C[C@H](COS(N)(=O)=O)[C@@H](O)[C@H]2O)c1)c1cccc(Br)n1` (single isomer, unassigned) [I-1b, [(1R,2R,3S,4R)-4-{[5-({4-[(1S)-1-(6-bromopyridin-2-yl)-1-hydroxyethyl]-2-thienyl}carbonyl)pyrimidin-4-yl]amino}-2,3-dihydroxycyclopentyl]methyl sulfamate or [(1R,2R,3S,4R)-4-{[5-({4-[(1R)-1-(6-bromopyridin-2-yl)-1-hydroxyethyl]-2-thienyl}carbonyl)pyrimidin-4-yl]amino}-2,3-dihydroxycyclopentyl]methyl sulfamate], the “Percent Inhibition” value is 100 and the pIC50 is > 8.00.

In the case of `NS(=O)(=O)OC[C@H]1C[C@@H](Nc2ncncc2C(=O)c2cc([C@H](O)c3cccc(Cl)n3)c(Cl)s2)C[C@@H]1O` (single isomer, unassigned) [I-2a, [(1R,2S,4R)-4-{[5-({5-chloro-4-[(S)-(6-chloropyridin-2-yl)(hydroxy)methyl]-2-thienyl}carbonyl)pyrimidin-4-yl]amino}-2-hydroxycyclopentyl]methyl sulfamate or [(1R,2S,4R)-4-{[5-({5-chloro-4-[(R)-(6-chloropyridin-2-yl)(hydroxy)methyl]-2-thienyl}carbonyl)pyrimidin-4-yl]amino}-2-hydroxycyclopentyl]methyl sulfamate], the “Percent Inhibition” value is recorded as 99 and the pIC50 was > 8.00.

For `NS(=O)(=O)OC[C@H]1C[C@@H](Nc2ncncc2C(=O)c2cc([C@H](O)c3cccc(Cl)n3)c(Cl)s2)C[C@@H]1O` (single isomer, unassigned) [I-2b, [(1R,2S,4R)-4-{[5-({5-chloro-4-[(S)-(6-chloropyridin-2-yl)(hydroxy)methyl]-2-thienyl}carbonyl)pyrimidin-4-yl]amino}-2-hydroxycyclopentyl]methyl sulfamate or [(1R,2S,4R)-4-{[5-({5-chloro-4-[(R)-(6-chloropyridin-2-yl)(hydroxy)methyl]-2-thienyl}carbonyl)pyrimidin-4-yl]amino}-2-hydroxycyclopentyl]methyl sulfamate], the “Percent Inhibition” value is 61 and the pIC50 was 7.00 to 8.00.

As to `CC(O)(c1cccc(Br)c1)c1csc(C(=O)c2cncnc2N[C@@H]2C[C@H](COS(N)(=O)=O)[C@@H](O)C2)c1` (single isomer, unassigned) [I-3a, [(1R,2S,4R)-4-{[5-({4-[(1R)-1-(3-bromophenyl)-1-hydroxyethyl]-2-thienyl}carbonyl)pyrimidin-4-yl]amino}-2-hydroxycyclopentyl]methyl sulfamate or [(1R,2S,4R)-4-{[5-({4-[(1S)-1-(3-bromophenyl)-1-hydroxyethyl]-2-thienyl}carbonyl)pyrimidin-4-yl]amino}-2-hydroxycyclopentyl]methyl sulfamate], the “Percent Inhibition” value is recorded as 92 and the pIC50 is 7.00 to 8.00.

On to `CC(O)(c1cccc(Br)c1)c1csc(C(=O)c2cncnc2N[C@@H]2C[C@H](COS(N)(=O)=O)[C@@H](O)C2)c1` (single isomer, unassigned) [I-3b, [(1R,2S,4R)-4-{[5-({4-[(1R)-1-(3-bromophenyl)-1-hydroxyethyl]-2-thienyl}carbonyl)pyrimidin-4-yl]amino}-2-hydroxycyclopentyl]methyl sulfamate or [(1R,2S,4R)-4-{[5-({4-[(1S)-1-(3-bromophenyl)-1-hydroxyethyl]-2-thienyl}carbonyl)pyrimidin-4-yl]amino}-2-hydroxycyclopentyl]methyl sulfamate], for which the “Percent Inhibition” value is 100 and the pIC50 was > 8.00.

With `NS(=O)(=O)OC[C@H]1C[C@@H](Nc2ncncc2C(=O)c2cc([C@H](O)c3cccc(Cl)c3)cs2)C[C@@H]1O` (single isomer, unassigned) [I-4a, [(1R,2S,4R)-4-{[5-({4-[(R)-(3-chlorophenyl)(hydroxy)methyl]-2-thienyl}carbonyl)pyrimidin-4-yl]amino}-2-hydroxycyclopentyl]methyl sulfamate or [(1R,2S,4R)-4-{[5-({4-[(S)-(3-chlorophenyl)(hydroxy)methyl]-2-thienyl}carbonyl)pyrimidin-4-yl]amino}-2-hydroxycyclopentyl]methyl sulfamate], the “Percent Inhibition” value came to 99 and the pIC50 is > 8.00.

Take `NS(=O)(=O)OC[C@H]1C[C@@H](Nc2ncncc2C(=O)c2cc([C@H](O)c3cccc(Cl)c3)cs2)C[C@@H]1O` (single isomer, unassigned) [I-4b, [(1R,2S,4R)-4-{[5-({4-[(R)-(3-chlorophenyl)(hydroxy)methyl]-2-thienyl}carbonyl)pyrimidin-4-yl]amino}-2-hydroxycyclopentyl]methyl sulfamate or [(1R,2S,4R)-4-{[5-({4-[(S)-(3-chlorophenyl)(hydroxy)methyl]-2-thienyl}carbonyl)pyrimidin-4-yl]amino}-2-hydroxycyclopentyl]methyl sulfamate]: the “Percent Inhibition” value was found to be 100 and the pIC50 was > 8.00.

In the case of `CC(O)(c1cccc(Cl)c1)c1csc(C(=O)c2cncnc2N[C@@H]2C[C@H](COS(N)(=O)=O)[C@@H](O)C2)c1` (single isomer, unassigned) [I-5a, [(1R,2S,4R)-4-{[5-({4-[(1R)-1-(3-chlorophenyl)-1-hydroxyethyl]-2-thienyl}carbonyl)pyrimidin-4-yl]amino}-2-hydroxycyclopentyl]methyl sulfamate or [(1R,2S,4R)-4-{[5-({4-[(1S)-1-(3-chlorophenyl)-1-hydroxyethyl]-2-thienyl}carbonyl)pyrimidin-4-yl]amino}-2-hydroxycyclopentyl]methyl sulfamate], the “Percent Inhibition” value is on record as 86 and the pIC50 was 7.00 to 8.00.

Take `CC(O)(c1cccc(Cl)c1)c1csc(C(=O)c2cncnc2N[C@@H]2C[C@H](COS(N)(=O)=O)[C@@H](O)C2)c1` (single isomer, unassigned) [I-5b, [(1R,2S,4R)-4-{[5-({4-[(1R)-1-(3-chlorophenyl)-1-hydroxyethyl]-2-thienyl}carbonyl)pyrimidin-4-yl]amino}-2-hydroxycyclopentyl]methyl sulfamate or [(1R,2S,4R)-4-{[5-({4-[(1S)-1-(3-chlorophenyl)-1-hydroxyethyl]-2-thienyl}carbonyl)pyrimidin-4-yl]amino}-2-hydroxycyclopentyl]methyl sulfamate]: the “Percent Inhibition” value is recorded as 100 and the pIC50 is > 8.00.

Regarding `Cc1sc(C(=O)c2cncnc2N[C@@H]2C[C@H](COS(N)(=O)=O)[C@@H](O)C2)cc1[C@H](N)c1cccc(Cl)c1` (single isomer, unassigned) [I-6a, [(1R,2S,4R)-4-{[5-({4-[(R)-amino(3-chlorophenyl)methyl]-5-methyl-2-thienyl}carbonyl)pyrimidin-4-yl]amino}-2-hydroxycyclopentyl]methyl sulfamate or [(1R,2S,4R)-4-{[5-({4-[(S)-amino(3-chlorophenyl)methyl]-5-methyl-2-thienyl}carbonyl)pyrimidin-4-yl]amino}-2-hydroxycyclopentyl]methyl sulfamate], the “Percent Inhibition” value is given as 98 and the pIC50 was > 8.00.

As for `Cc1sc(C(=O)c2cncnc2N[C@@H]2C[C@H](COS(N)(=O)=O)[C@@H](O)C2)cc1[C@H](N)c1cccc(Cl)c1` (single isomer, unassigned) [I-6b, [(1R,2S,4R)-4-{[5-({4-[(R)-amino(3-chlorophenyl)methyl]-5-methyl-2-thienyl}carbonyl)pyrimidin-4-yl]amino}-2-hydroxycyclopentyl]methyl sulfamate or [(1R,2S,4R)-4-{[5-({4-[(S)-amino(3-chlorophenyl)methyl]-5-methyl-2-thienyl}carbonyl)pyrimidin-4-yl]amino}-2-hydroxycyclopentyl]methyl sulfamate], the “Percent Inhibition” value is given as 98 and the pIC50 is > 8.00.

As to `COCc1sc(C(=O)c2cncnc2N[C@@H]2C[C@H](COS(N)(=O)=O)[C@@H](O)C2)cc1C(O)c1cccc(Cl)c1` (single isomer, unassigned) [I-7a, [(1R,2S,4R)-4-{[5-({4-[(R)-(3-chlorophenyl)(hydroxy)methyl]-5-(methoxymethyl)-2-thienyl}carbonyl)pyrimidin-4-yl]amino}-2-hydroxycyclopentyl]methyl sulfamate or [(1R,2S,4R)-4-{[5-({4-[(S)-(3-chlorophenyl)(hydroxy)methyl]-5-(methoxymethyl)-2-thienyl}carbonyl)pyrimidin-4-yl]amino}-2-hydroxycyclopentyl]methyl sulfamate], the “Percent Inhibition” value stood at 96 and the pIC50 was > 8.00.

On to `COCc1sc(C(=O)c2cncnc2N[C@@H]2C[C@H](COS(N)(=O)=O)[C@@H](O)C2)cc1C(O)c1cccc(Cl)c1` (single isomer, unassigned) [I-7b, [(1R,2S,4R)-4-{[5-({4-[(R)-(3-chlorophenyl)(hydroxy)methyl]-5-(methoxymethyl)-2-thienyl}carbonyl)pyrimidin-4-yl]amino}-2-hydroxycyclopentyl]methyl sulfamate or [(1R,2S,4R)-4-{[5-({4-[(S)-(3-chlorophenyl)(hydroxy)methyl]-5-(methoxymethyl)-2-thienyl}carbonyl)pyrimidin-4-yl]amino}-2-hydroxycyclopentyl]methyl sulfamate], for which the “Percent Inhibition” value came out at 98 and the negative-log IC50 (pIC50) was > 8.00.

In the case of `CC(N)(c1cccc(Cl)c1)c1csc(C(=O)c2cncnc2N[C@@H]2C[C@H](COS(N)(=O)=O)[C@@H](O)[C@H]2O)c1` (single isomer, unassigned) [I-8a, [(1R,2R,3S,4R)-4-{[5-({4-[(1S)-1-amino-1-(3-chlorophenyl)ethyl]-2-thienyl}carbonyl)pyrimidin-4-yl]amino}-2,3-dihydroxycyclopentyl]methyl sulfamate or [(1R,2R,3S,4R)-4-{[5-({4-[(1R)-1-amino-1-(3-chlorophenyl)ethyl]-2-thienyl}carbonyl)pyrimidin-4-yl]amino}-2,3-dihydroxycyclopentyl]methyl sulfamate], the “Percent Inhibition” value was determined as 96 and the pIC50 was > 8.00.
